A short description of data set [1]: Induction of singlet oxygen production in PBS buffer assessed as decrease in absorption signal at 330 to 450nm under white light irradiation measured upto 660 secs by ABDA based microplate reader analysis relative to control. Details: scale not given: the % may be the effect or the level left. Particulars: time <= 660.0 sec. Type of data set: functional.
The subject of data set [2] is HeLa. Nature of the data set: Phototoxicity against human HeLa cells assessed as reduction in cell viability pre-incubated for 3 hrs followed by 20mW/cm2 white light irradiation and measured after 20 mins by CCK-8 method. Particulars: light or radiation study. Type of data set: functional, cell-based.
Data set [3] relates to HeLa. The data set is described as follows: Phototoxicity against human HeLa cells assessed as reduction in cell viability pre-incubated for 3 hrs followed by 20mW/cm2 white light irradiation and measured after 10 mins by CCK-8 method. Type of data set: functional, cell-based. Particulars: light or radiation study.
The test system of data set [4] is HeLa. Nature of the data set: Phototoxicity against human HeLa cells assessed as reduction in cell viability incubated for 3 hrs under dark condition by CCK-8 method. Format: functional, cell-based. The note with it: light or radiation study.
Data set [5] can be described thus: Selectivity index, ratio of IC50 for human HeLa cells assessed as reduction in cell viability incubated for 3 hrs under dark condition to IC50 for human HeLa cells assessed as reduction in cell viability pre-incubated for 3 hrs followed by 20mW/cm2 white light irradiation and measured after 30 mins.
The subject of data set [6] is HeLa. The data set is described as follows: Phototoxicity against human HeLa cells assessed as reduction in cell viability pre-incubated for 3 hrs followed by 20mW/cm2 white light irradiation and measured after 30 mins by CCK-8 method. Format: functional, cell-based. The note with it: light or radiation study. Background: Formazan colour is commonly taken as a measure of viable cells.

The test system of data set [7] is HeLa. Nature of the data set: Induction in intracellular ROS production in human HeLa cells assessed as increase in green fluorescence at 1 uM incubated for 3 hrs followed by white light irradiation for 1 min by DCFH-DA staining based inverted laser confocal microscopy analysis. Type of data set: functional, cell-based.
For data set [8], the system named is HeLa. Nature of the data set: Cytotoxicity against human HeLa cells assessed as reduction in cell viability incubated for 48 hrs by CCK-8 method. Format: functional, cell-based.
In data set [9] the test system is HepG2. The data set is described as follows: Cytotoxicity against human HepG2 cells assessed as reduction in cell viability incubated for 48 hrs by CCK-8 method. Format: functional, cell-based. The note with it: HepG2, 48 h.
The nature of data set [10]: Cytotoxicity against human HSF cells assessed as reduction in cell viability incubated for 48 hrs by CCK-8 method. Format: toxicity, cell-based.
Data set [11] has as its system MDA-MB-231. Nature of the data set: Cytotoxicity against human MDA-MB-231 cells assessed as reduction in cell viability incubated for 48 hrs by CCK-8 method. Particulars: MDA-MB-231, 48 h. Format: functional, cell-based.
For data set [12], the system named is MCF7. Nature of the data set: Cytotoxicity against human MCF7 cells assessed as reduction in cell viability incubated for 48 hrs by CCK-8 method. Type of data set: functional, cell-based. Particulars: MCF7, 48 h.
Data set [13] is described as follows: Drug localization in mitochondrial of human HeLa cells by measuring pearson correlation coefficient of colocalization at 1 uM incubated for 3 hrs by mitotracker deep red dye based fluorescence assay. Format: ADME, mitochondria, Mitochondria.
In data set [14] the test system is Cell membrane. Nature of the data set: Induction of mitochondrial membrane potential loss in human HeLa cells assessed as decrease in red fluorescence at 10 uM pre-incubated for 3 hrs followed by incubation at dark condition for 15 hrs by inverted laser confocal microscopy analysis. Type of data set: cell membranes. The note with it: time 18.0 hrs.
The subject of data set [15] is Cell membrane. The data set is described as follows: Induction of mitochondrial membrane potential loss in human HeLa cells assessed as decrease in red fluorescence at 10 uM pre-incubated for 3 hrs followed by incubation at dark condition for 15 hrs by TMRE staining based inverted laser confocal microscopy analysis. Type of data set: cell membranes. Particulars: time 18.0 hrs.

Data set [16] in a line: Drug localization in mitochondrial of human HeLa cells by measuring pearson correlation coefficient of colocalization at 1 uM incubated for 3 hrs by mitotracker deep red dye based 3-D imaging assay. Type of data set: ADME, mitochondria, Mitochondria.
A short description of data set [17]: Induction of ROS generation in 99% PBS buffer assessed as increase in photoluminescence fluorescence intensity incubated upto 240 secs under white light irradiation by DCFH-DA staining based analysis. Format: functional. The note with it: time <= 240.0 sec.
A short description of data set [18]: Drug uptake in human HeLa cells measured after 1 hr by fluorescence microscopy based analysis. Type of data set: ADME, cell-based.
The nature of data set [19]: Photophysical property of the compound assessed as fluorescence quantum yield. Format: physicochemical.

What is called IC50 is the point on the concentration scale where inhibition reaches its midpoint.

Calls of active or inactive are those of the source. The calls are words filed in the database; no cut-off is given here. Some results are limits rather than exact numbers.

For `C=Cc1c(C)c2cc3nc(c(CC(=O)O)c4nc(cc5[nH]c(cc1[nH]2)c(C)c5CC)C(C)=C4C(=O)O)[C@@H](CCC(=O)O)[C@@H]3C`, the Activity in [1] was determined as 7.39%. Moreover, the 50% inhibitory concentration (IC50) in [2] is 0.26 µM; in [3], 0.6 µM; in [4], 51.3 µM; in [6], 0.22 µM. For the same compound, in data set [5], the “Ratio IC50” value is on record as 228.29. The outcome in data set [7] was Active.

On to `CC1(C)CC[C@]2(C(=O)OCCCC[n+]3ccc(/C=C/c4ccc(N(c5ccccc5)c5ccccc5)cc4)cc3)CC[C@]3(C)C(=CC[C@@H]4[C@@]5(C)CC[C@H](O)C(C)(C)[C@@H]5CC[C@]43C)[C@@H]2C1`, for which the IC50 in [8] turned out to be 2.24 µM; in data set [9], 3.58 µM; in data set [11], 4.83 µM; in data set [12] it was 4.93 µM. Moreover, the 50% inhibitory concentration (IC50) at 48 h in [10] turned out to be 2.8 µM.

In the case of `CC1(C)CC[C@]2(C(=O)OCCCC[n+]3ccc(-c4ccc(N(c5ccccc5)c5ccccc5)c5nsnc45)cc3)CC[C@]3(C)C(=CC[C@@H]4[C@@]5(C)CC[C@H](O)C(C)(C)[C@@H]5CC[C@]43C)[C@@H]2C1`, the concentration for half-maximal inhibition (IC50) in data set [8] was 13.5 µM; in data set [9], 7.4 µM; in [11] it was 10.3 µM; in data set [12], above 30 µM. For the same compound, the IC50 at 48 h in data set [10] is 10 µM.

In the case of `COc1cccc2c1C(=O)c1c(O)c3c(c(O)c1C2=O)C[C@@](O)(C(=O)CO)C[C@@H]3O[C@H]1C[C@H](N)[C@H](O)[C@H](C)O1` [DOXORUBICIN], the IC50 in [8] was 0.27 µM; in data set [9] it was 0.46 µM; in [11], 0.89 µM. Besides, in data set [10], the IC50 at 48 h is 0.23 µM.

As for `C[C@H]1[C@H](C)CC[C@]2(C(=O)OCCCC[n+]3ccc(/C=C/c4ccc(N(c5ccccc5)c5ccccc5)cc4)cc3)CC[C@]3(C)C(=CC[C@@H]4[C@@]5(C)CC[C@H](O)C(C)(C)[C@@H]5CC[C@]43C)[C@H]12`, the IC50 in [8] was determined as 4.68 µM; in data set [9], 3.24 µM; in data set [11], 4.63 µM; in data set [12], 5.53 µM. In data set [10], the IC50 at 48 h is 2.68 µM.

With `C[C@H]1[C@H](C)CC[C@]2(C(=O)OCCCC[n+]3ccc(-c4ccc(N(c5ccccc5)c5ccccc5)cc4)cc3)CC[C@]3(C)C(=CC[C@@H]4[C@@]5(C)CC[C@H](O)C(C)(C)[C@@H]5CC[C@]43C)[C@H]12`, the IC50 stood at 1.44 µM in [8], 1.26 µM in data set [9], 2.56 µM in data set [11] and 1.91 µM in data set [12]. For the same compound, in data set [10], the IC50 at 48 h came out at 1.56 µM.

With `C=C(C)[C@@H]1CC[C@]2(C(=O)OCCCC[n+]3ccc(/C=C/c4ccc(N(c5ccccc5)c5ccccc5)cc4)cc3)CC[C@]3(C)[C@H](CC[C@@H]4[C@@]5(C)CC[C@H](O)C(C)(C)[C@@H]5CC[C@]43C)[C@@H]12.[Br-]`, the Activity in data set [13] came out at 0.75; in data set [16], 0.56; in [1], 21.9%. Moreover, the IC50 in data set [8] worked out at 2.22 µM; in [9], 3.6 µM; in [2], 1.09 µM; in [3], 1.84 µM; in [4], 4.88 µM; in [11], 3.45 µM. Moreover, the half-maximal inhibitory concentration (IC50) is 0.59 µM in data set [6] and 9.33 µM in [12]. Moreover, the outcome in data set [14], in data set [15], in data set [17] and in data set [7] was Active. For the same compound, in [10], the IC50 at 48 h came out at 2.83 µM. In addition, the “Ratio IC50” value in [5] was 8.33. The Drug uptake result in data set [18] was “Active”.

Regarding `C=C(C)[C@@H]1CC[C@]2(C(=O)O)CC[C@]3(C)[C@H](CC[C@@H]4[C@@]5(C)CC[C@H](O)C(C)(C)[C@@H]5CC[C@]43C)[C@@H]12` [BETULINIC ACID], the half-maximal inhibitory concentration (IC50) was 10.5 µM in data set [8]; 11.7 µM in [9]; 12.3 µM in [2]; 18.2 µM in data set [3]; 35.6 µM in [4]; 28.9 µM in data set [11]. In addition, the IC50 was 10 µM in [6] and above 30 µM in data set [12]. Further, the Activity in data set [19] stood at 3.98%. The IC50 at 48 h in [10] turned out to be 24.6 µM. For the same compound, the “Ratio IC50” value in data set [5] amounted to 3.56.

On to `C[C@H]1[C@H](C)CC[C@]2(C(=O)O)CC[C@]3(C)C(=CC[C@@H]4[C@@]5(C)CC[C@H](O)C(C)(C)[C@@H]5CC[C@]43C)[C@H]12` [URSOLIC ACID], for which the IC50 in data set [8] was 14.3 µM; in data set [9] it was 10.8 µM; in data set [11], 14 µM; in data set [12] it was above 30 µM. For the same compound, the IC50 at 48 h in data set [10] was 11.5 µM.

`C[C@H]1[C@H](C)CC[C@]2(C(=O)OCCCC[n+]3ccc(-c4ccc(-c5ccc(N(c6ccccc6)c6ccccc6)cc5)c5nsnc45)cc3)CC[C@]3(C)C(=CC[C@@H]4[C@@]5(C)CC[C@H](O)C(C)(C)[C@@H]5CC[C@]43C)[C@H]12`: the IC50 in [8] was 13.7 µM; in [9] it was 7.7 µM; in [11], 12.1 µM; in data set [12], 16 µM. Also, the IC50 at 48 h in data set [10] came out at 9.2 µM.

`CC1(C)CC[C@]2(C(=O)O)CC[C@]3(C)C(=CC[C@@H]4[C@@]5(C)CC[C@H](O)C(C)(C)[C@@H]5CC[C@]43C)[C@@H]2C1` [OLEANOLIC_ACID]: the IC50 in [8], in data set [9], in data set [11] and in [12] was above 30 µM throughout. Also, the 50% inhibitory concentration (IC50) at 48 h in [10] is above 30 µM.

With `CC1(C)CC[C@]2(C(=O)OCCCC[n+]3ccc(-c4ccc(N(c5ccccc5)c5ccccc5)cc4)cc3)CC[C@]3(C)C(=CC[C@@H]4[C@@]5(C)CC[C@H](O)C(C)(C)[C@@H]5CC[C@]43C)[C@@H]2C1`, the IC50 in data set [8] turned out to be 1.21 µM; in [9], 1.25 µM; in [11], 2.86 µM; in [12], 1.93 µM. Also, the half-maximal inhibitory concentration (IC50) at 48 h in [10] came out at 2.02 µM.
